Results taken from patent publication US11000033B2, “Ketone or oxime compound, and herbicide” (NISSAN CHEMICAL CORPORATION, priority 2014, dated 2021).

Experiments:
Alopecurus myosuroides = assay: Test Example 4: herbicidal effect by soil treatment (symbol J); format: in vivo; settings: for J (Alopecurus myosuroides) herbicidal effect grade: application herbicide amount 320 g/ha
In short: (§1)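 Seeds were sown in sterilized diluvial soil, covered with about 1.5 cm of soil, and the soil surface was sprayed with a water-diluted emulsion of the compound at a predetermined rate. Plants grew in a greenhouse at 25° C. to 30° C.; effects were scored visually 3 weeks after application.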

Setaria viridis = assay: Test Example 4: herbicidal effect by soil treatment (symbol G); format: in vivo; settings: for G (Setaria viridis) herbicidal effect grade: application herbicide amount 320 g/ha
In short: as §1

Avena fatua = assay: Test Example 4: herbicidal effect by soil treatment (symbol I); format: in vivo; settings: for I (Avena fatua) herbicidal effect grade: application herbicide amount 320 g/ha
In short: as §1

Abutilon theophrasti = assay: Test Example 5: herbicidal effect by foliage application, plastic box (symbol M); format: in vivo; settings: 320 g/ha, 3 weeks after application
In short: (§2)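 Herbicide, formulated as an emulsion and diluted in water, is sprayed onto the aerial parts of 14-day seedlings. These were grown at 25° C. to 30° C. in sterilized diluvial soil; effects are graded after 3 weeks.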

corn = assay: Test Example 5: effect on crop by foliage application, plastic box (symbol c); format: in vivo; settings: 320 g/ha, 3 weeks after application
In short: (§3)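 Sterilized diluvial soil, plastic box (21 × 13 × 7 cm); spot sowing, ~1.5 cm soil cover; greenhouse 25–30° C.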

Monochoria vaginalis = assay: Test Example 1: herbicidal activity, application before weed generation in submerged conditions (symbol C); format: in vivo; settings: application herbicide amount 320 g/ha
In short: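 In a flooded pot test with alluvial soil, the emulsion-formulated compound was diluted with water to a predetermined amount and applied to the floodwater immediately on the sowing day. Pots were held in a greenhouse at 25–30 °C for 3 weeks before each weed was rated.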

Chenopodium album [1] = assay: Test Example 5: herbicidal effect by foliage application, plastic box (symbol O); format: in vivo; settings: 320 g/ha, 3 weeks after application
In short: as §2

Apera spica-venti = assay: Test Example 4: herbicidal effect by soil treatment (symbol L); format: in vivo; settings: for L (Apera spica-venti) herbicidal effect grade: application herbicide amount 320 g/ha
In short: as §1

Leptochloa chinensis = assay: Test Example 3: herbicidal effect by foliage application, Wagner pot (symbol D); format: in vivo; settings: application herbicide amount 320 g/ha
In short: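 Foliar spray of water-diluted emulsion formulation at a predetermined herbicide amount onto 14-day-old plants in flooded alluvial soil (water depth 0.1–0.5 cm), greenhouse 25–30 °C; rice sown alongside. Scored 3 wk post-application on set criteria.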

transplanted rice plant = assay: Test Example 1: effect on crop, application before weed generation in submerged conditions (symbol a); format: in vivo; settings: application herbicide amount 320 g/ha
In short: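 Rice at 2.5 leaf stage transplanted into submerged soil (4 cm depth) sown with three weed species; herbicide applied before weed emergence.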

Lolium multiflorum Lam. = assay: Test Example 5: herbicidal effect by foliage application, plastic box (symbol K); format: in vivo; settings: 320 g/ha, 3 weeks after application
In short: as §2

rapeseed = assay: Test Example 5: effect on crop by foliage application, plastic box (symbol g); format: in vivo; settings: 320 g/ha, 3 weeks after application
In short: as §3

Stellaria media [2] = assay: Test Example 5: herbicidal effect by foliage application, plastic box (symbol P); format: in vivo; settings: 320 g/ha, 3 weeks after application
In short: as §2

[3] = system: Echinochloa crus-galli var. crus-galli; assay: Test Example 5: herbicidal effect by foliage application, plastic box (symbol H); format: in vivo; settings: 320 g/ha, 3 weeks after application
In short: as §2

Amaranthus retroflexus = assay: Test Example 5: herbicidal effect by foliage application, plastic box (symbol N); format: in vivo; settings: 320 g/ha, 3 weeks after application
In short: as §2

Stellaria media [4] = assay: Test Example 4: herbicidal effect by soil treatment (symbol P); format: in vivo; settings: for P (Stellaria media) herbicidal effect grade: application herbicide amount 320 g/ha
In short: as §1

Chenopodium album [5] = assay: Test Example 4: herbicidal effect by soil treatment (symbol O); format: in vivo
In short: as §1

Veronica persica = assay: Test Example 4: herbicidal effect by soil treatment (symbol R); format: in vivo
In short: as §1

Galium spurium = assay: Test Example 4: herbicidal effect by soil treatment (symbol Q); format: in vivo
In short: as §1

[6] = application herbicide amount 320 g/ha

| SMILES | J (Alopecurus myosuroides) herbicidal effect grade (Alopecurus myosuroides) | G (Setaria viridis) herbicidal effect grade (Setaria viridis) | I (Avena fatua) herbicidal effect grade (Avena fatua) | M: Abutilon theophrasti, herbicidal effect grade (Abutilon theophrasti) | c: corn, effect on crop grade (corn) | melting point | Herbicidal effect grade, C: Monochoria vaginalis (Monochoria vaginalis) | O: Chenopodium album, herbicidal effect grade (Chenopodium album [1]) | L (Apera spica-venti) herbicidal effect grade (Apera spica-venti) | herbicidal effect on D (Leptochloa chinensis), grade 0-5 (Leptochloa chinensis) | Effect grade on crop, a: transplanted rice plant (transplanted rice plant) | K: Lolium multiflorum Lam., herbicidal effect grade (Lolium multiflorum Lam.) | g: rapeseed, effect on crop grade (rapeseed) | P: Stellaria media, herbicidal effect grade (Stellaria media [2]) | H: Echinochloa crus-galli var. crus-galli, herbicidal effect grade [3] | N: Amaranthus retroflexus, herbicidal effect grade (Amaranthus retroflexus) | P (Stellaria media) herbicidal effect grade (Stellaria media [4]) | further results |
| --- | --- | --- | --- | --- | --- | --- | --- | --- | --- | --- | --- | --- | --- | --- | --- | --- | --- | --- |
| CC(CC1CC(O)=C(c2c(C)cc(C)cc2C)C1=O)=NOCC(F)(F)F (centres unmarked) [1-028] | 5 (Herbicidal ratio of 90% or more (almost completely withered)) | 5 (Herbicidal ratio of 90% or more (almost completely withered)) | 4 (Herbicidal ratio of 70% or higher and lower than 90%) | 3 (Herbicidal ratio of 40% or higher and lower than 70%) | 4 (Herbicidal ratio of 70% or higher and lower than 90%) | 172 to 174 °C | 1 (Herbicidal ratio of 5% or higher and lower than 20%) | 3 (Herbicidal ratio of 40% or higher and lower than 70%) | 5 (Herbicidal ratio of 90% or more (almost completely withered)) | 5 (Herbicidal ratio of 90% or more (almost completely withered)) | 5 (Herbicidal ratio of 90% or more (almost completely withered)) | 5 (Herbicidal ratio of 90% or more (almost completely withered)) | 4 (Herbicidal ratio of 70% or higher and lower than 90%) | 3 (Herbicidal ratio of 40% or higher and lower than 70%) | 5 (Herbicidal ratio of 90% or more (almost completely withered)) | 0 (Herbicidal ratio of 5% or lower (almost no effect)) |  |  |
| CON=C(CC1CC(O)=C(c2c(C)cc(C)cc2C)C1=O)C(C)(C)C (centres unmarked) [1-059] | 3 (Herbicidal ratio of 40% or higher and lower than 70%) | 4 (Herbicidal ratio of 70% or higher and lower than 90%) | 0 (Herbicidal ratio of 5% or lower (almost no effect)) | 0 (Herbicidal ratio of 5% or lower (almost no effect)) | 4 (Herbicidal ratio of 70% or higher and lower than 90%) | 163 to 164 °C | 2 (Herbicidal ratio of 20% or higher and lower than 40%) | 0 (Herbicidal ratio of 5% or lower (almost no effect)) | 5 (Herbicidal ratio of 90% or more (almost completely withered)) | 1 (Herbicidal ratio of 5% or higher and lower than 20%) | 4 (Herbicidal ratio of 70% or higher and lower than 90%) | 3 (Herbicidal ratio of 40% or higher and lower than 70%) | 3 (Herbicidal ratio of 40% or higher and lower than 70%) | 0 (Herbicidal ratio of 5% or lower (almost no effect)) | 4 (Herbicidal ratio of 70% or higher and lower than 90%) | 0 (Herbicidal ratio of 5% or lower (almost no effect)) | 0 (Herbicidal ratio of 5% or lower (almost no effect)) |  |
| CC#CC(=O)OC1=C(c2c(C)cc(C)cc2C)C(=O)C(CC(C)=NOC)C1 (centres unmarked) [1-095] |  |  |  |  |  |  | 2 (Herbicidal ratio of 20% or higher and lower than 40%) |  |  | 5 (Herbicidal ratio of 90% or more (almost completely withered)) | 5 (Herbicidal ratio of 90% or more (almost completely withered)) |  |  |  |  |  |  | J: Alopecurus myosuroides, herbicidal effect grade (Alopecurus myosuroides; 320 g/ha): 5 (Herbicidal ratio of 90% or more (almost completely withered)); G: Setaria viridis, herbicidal effect grade (Setaria viridis; 320 g/ha): 5 (Herbicidal ratio of 90% or more (almost completely withered)); O: Chenopodium album, herbicidal effect grade (Chenopodium album [5]; 320 g/ha): 0 (Herbicidal ratio of 5% or lower (almost no effect)); R: Veronica persica, herbicidal effect grade (Veronica persica; 320 g/ha): 1 (Herbicidal ratio of 5% or higher and lower than 20%); I: Avena fatua, herbicidal effect grade (Avena fatua; 320 g/ha): 3 (Herbicidal ratio of 40% or higher and lower than 70%); M: Abutilon theophrasti, herbicidal effect (criteria 0-5) (Abutilon theophrasti): 4 (Herbicidal ratio of 70% or higher and lower than 90%); c: corn, effect on crop (criteria 0-5) (corn): 5 (Herbicidal ratio of 90% or more (almost completely withered)); O: Chenopodium album, herbicidal effect (criteria 0-5) (Chenopodium album [1]): 0 (Herbicidal ratio of 5% or lower (almost no effect)); L: Apera spica-venti, herbicidal effect grade (Apera spica-venti; 320 g/ha): 5 (Herbicidal ratio of 90% or more (almost completely withered)); K: Lolium multiflorum Lam., herbicidal effect (criteria 0-5) (Lolium multiflorum Lam.): 5 (Herbicidal ratio of 90% or more (almost completely withered)); g: rapeseed, effect on crop (criteria 0-5) (rapeseed): 4 (Herbicidal ratio of 70% or higher and lower than 90%); P: Stellaria media, herbicidal effect (criteria 0-5) (Stellaria media [2]): 2 (Herbicidal ratio of 20% or higher and lower than 40%); H: Echinochloa crus-galli var. crus-galli, herbicidal effect (criteria 0-5) [3]: 5 (Herbicidal ratio of 90% or more (almost completely withered)); P: Stellaria media, herbicidal effect grade (Stellaria media [4]; 320 g/ha): 0 (Herbicidal ratio of 5% or lower (almost no effect)); Q: Galium spurium, herbicidal effect grade (Galium spurium; 320 g/ha): 0 (Herbicidal ratio of 5% or lower (almost no effect)); N: Amaranthus retroflexus, herbicidal effect (criteria 0-5) (Amaranthus retroflexus): 3 (Herbicidal ratio of 40% or higher and lower than 70%) |
| CON=C(CC1CC1)CC1CC(O)=C(c2c(C)cc(C)cc2C)C1=O (centres unmarked) [1-070] | 5 (Herbicidal ratio of 90% or more (almost completely withered)) | 4 (Herbicidal ratio of 70% or higher and lower than 90%) | 0 (Herbicidal ratio of 5% or lower (almost no effect)) | 0 (Herbicidal ratio of 5% or lower (almost no effect)) | 4 (Herbicidal ratio of 70% or higher and lower than 90%) |  | 0 (Herbicidal ratio of 5% or lower (almost no effect)) | 1 (Herbicidal ratio of 5% or higher and lower than 20%) | 5 (Herbicidal ratio of 90% or more (almost completely withered)) | 4 (Herbicidal ratio of 70% or higher and lower than 90%) | 4 (Herbicidal ratio of 70% or higher and lower than 90%) | 5 (Herbicidal ratio of 90% or more (almost completely withered)) | 3 (Herbicidal ratio of 40% or higher and lower than 70%) | 0 (Herbicidal ratio of 5% or lower (almost no effect)) | 3 (Herbicidal ratio of 40% or higher and lower than 70%) | 0 (Herbicidal ratio of 5% or lower (almost no effect)) | 0 (Herbicidal ratio of 5% or lower (almost no effect)) | O (Chenopodium album) herbicidal effect grade (Chenopodium album [5]; [6]): 0 (Herbicidal ratio of 5% or lower (almost no effect)); R (Veronica persica) herbicidal effect grade (Veronica persica; [6]): 0 (Herbicidal ratio of 5% or lower (almost no effect)); Q (Galium spurium) herbicidal effect grade (Galium spurium; [6]): 0 (Herbicidal ratio of 5% or lower (almost no effect)) |
